Results on five molecules are retold here after EP4790066A1, “GLP-1R/GIPR/GCGR TRIPLE AGONIST ANALOGUE AND USE THEREOF” (Shenzhen Bay Laboratory, priority 2023, dated 2025).

Common to all, as to format: cell-based
Assay [1] concerns the target T1, GIPR (Homo sapiens, UniProt P48546).
T1 construct: expressed in transfected cells
T1 sequence (P48546 22-466): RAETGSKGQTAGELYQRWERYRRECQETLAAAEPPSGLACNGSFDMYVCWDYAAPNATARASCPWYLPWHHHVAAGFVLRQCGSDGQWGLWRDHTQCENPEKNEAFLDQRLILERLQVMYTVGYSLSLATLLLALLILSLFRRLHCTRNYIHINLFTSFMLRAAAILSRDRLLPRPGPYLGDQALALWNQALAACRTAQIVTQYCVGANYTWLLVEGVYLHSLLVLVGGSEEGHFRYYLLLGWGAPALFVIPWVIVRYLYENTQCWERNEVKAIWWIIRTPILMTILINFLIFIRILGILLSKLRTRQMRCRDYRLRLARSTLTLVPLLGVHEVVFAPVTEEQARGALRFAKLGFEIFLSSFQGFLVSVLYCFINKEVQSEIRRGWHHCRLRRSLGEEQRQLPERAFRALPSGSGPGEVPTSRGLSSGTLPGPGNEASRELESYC
Nature of the assay: CreLuc method (CRE-luciferase reporter), HEK293/pGM-CREB-L-Luc/GIPR pool. The conditions noted are these: 6 h incubation, read-out: EC50 (pM) for each receptor GIPR. The method, boiled down: (§1)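 Stable HEK293 pools co-expressing each receptor with a CRE-luciferase reporter were plated at 20,000 cells/well in freestyle medium and treated with compound dilution series for 6 h at 37 °C. Luminescence was read with ONE-GLO to derive EC50.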

Assay [2] concerns the target T2, GLP-1R (Homo sapiens, UniProt P43220).
T2 construct: expressed in transfected cells
Nature of the assay: CreLuc method (CRE-luciferase reporter), HEK293/pGM-CREB-L-Luc/GLP-1R pool. The conditions noted are these: 6 h incubation, read-out: EC50 (pM) for each receptor GLP-1R. The gist of the method:
as §1

The target of assay [3] is T3, GCGR (Homo sapiens, UniProt P47871).
T3 construct: expressed in transfected cells
Nature of the assay: CreLuc method (CRE-luciferase reporter), 293HEK/pGM-CREB-L-Luc/GCGR pool. The conditions noted are these: 6 h incubation, read-out: EC50 (pM) for each receptor GCGR. The gist of the method: as §1

The target of assay [4] is T3, GCGR. Put plainly: cAMP method (HTRF cAMP detection kit), HEK293/pGM-CREB-L-Luc/GCG pool. The conditions noted are these: read-out: EC50 (pM) for each receptor GCGR. As for the experimental part: (§2) 2. Insulinotropic analogues can bind to target receptors on the cell membrane, activate the receptors, and induce release. The activity of the test substance can be determined using the HTRF method with a cAMP detection kit. Therefore, the cAMP method can be used to detect the target peptide derivatives (or polypeptide derivatives, i.e., TG1-TG86) prepared in Example 1 and Example 2. […] The test cell line was selected, treated with cAMP-specific trypsin for digestion. 3 mL of serum-free DMEM culture medium was added, and the cells were pipetted, resuspended, and counted. 5 µL of IBMX (prepared with serum-free DMEM medium, 0.5 mM) and test cells (5 µL/7500 cells/well) were added in a 384-well plate sequentially. The plate was incubated at 37°C under 5% CO2 for 30 min, followed by the addition of cAMP-d2 (5 µL, 1x) and Anti-cAMP-Cryptate (5 µL, 1x). The mixture was kept at room temperature for 1 h, after which the HTRF value was measured using a chemiluminescent microplate reader, and the determination result was recorded. […] Table 4: EC50 values for target peptide derivatives

Assay [5] deals with T2, GLP-1R. Nature of the assay: cAMP method (HTRF cAMP detection kit), HEK293/pGM-CREB-L-Luc/GLP-1 pool. The settings on record: read-out: EC50 (pM) for each receptor GLP-1R. Here is the method: as §2
Assay [6] deals with T1, GIPR. Nature of the assay: cAMP method (HTRF cAMP detection kit), HEK293/pGM-CREB-L-Luc/GIP pool. The conditions noted are these: read-out: EC50 (pM) for each receptor GIPR. As for the experimental part:
as §2

T2 sequence (P43220 24-463, species assumed): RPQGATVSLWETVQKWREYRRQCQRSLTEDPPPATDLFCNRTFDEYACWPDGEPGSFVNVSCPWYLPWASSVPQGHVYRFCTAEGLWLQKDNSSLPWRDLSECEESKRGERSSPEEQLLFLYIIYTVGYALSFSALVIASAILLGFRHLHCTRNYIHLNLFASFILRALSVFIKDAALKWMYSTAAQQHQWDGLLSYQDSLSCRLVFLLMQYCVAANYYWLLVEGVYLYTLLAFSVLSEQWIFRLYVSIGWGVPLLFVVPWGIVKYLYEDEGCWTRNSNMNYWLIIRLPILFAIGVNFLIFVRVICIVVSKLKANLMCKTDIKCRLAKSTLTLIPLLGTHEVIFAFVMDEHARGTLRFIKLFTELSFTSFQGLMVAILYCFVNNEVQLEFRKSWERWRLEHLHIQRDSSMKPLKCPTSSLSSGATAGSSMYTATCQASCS
T3 sequence (P47871 26-477, species assumed): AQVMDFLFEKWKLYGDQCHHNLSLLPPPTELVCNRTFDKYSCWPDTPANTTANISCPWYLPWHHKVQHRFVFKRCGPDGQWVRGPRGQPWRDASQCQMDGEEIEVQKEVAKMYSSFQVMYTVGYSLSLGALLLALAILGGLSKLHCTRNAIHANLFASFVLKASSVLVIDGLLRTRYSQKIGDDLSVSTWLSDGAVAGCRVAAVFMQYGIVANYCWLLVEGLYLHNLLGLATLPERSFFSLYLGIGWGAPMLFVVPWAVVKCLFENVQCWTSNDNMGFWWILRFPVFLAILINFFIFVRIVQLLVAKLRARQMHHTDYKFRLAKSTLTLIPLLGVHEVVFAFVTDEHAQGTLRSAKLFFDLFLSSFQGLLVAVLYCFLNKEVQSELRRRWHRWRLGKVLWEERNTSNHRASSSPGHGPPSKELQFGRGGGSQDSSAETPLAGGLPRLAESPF

Take `CC(C)C[C@H](NC(=O)[C@H](CC(C)C)NC(=O)[C@H](Cc1c[nH]c2ccccc12)NC(=O)[C@@H]1CSCC(=O)NCCN(C(=O)CCC(=O)NCCOCCOCC(=O)NCCOCCOCC(=O)NCCCC[C@H](NC(=O)CCCCCCCCCCCCCCCCCCC(=O)O)C(=O)O)CCNC(=O)CSC[C@H](NC(=O)[C@H](CCCCN)NC(=O)[C@H](CC(=O)O)NC(=O)[C@H](CC(C)C)NC(=O)[C@H](Cc2ccc(O)cc2)NC(=O)[C@H](CCCCN)NC(=O)[C@H](CO)NC(=O)[C@H](Cc2ccc(O)cc2)NC(=O)[C@H](CC(=O)O)NC(=O)[C@H](CO)NC(=O)[C@@H](NC(=O)[C@H](Cc2ccccc2)NC(=O)[C@@H](NC(=O)CNC(=O)[C@H](Cc2c[nH]cn2)NC(=O)C(C)(C)NC(=O)[C@@H](N)Cc2c[nH]cn2)[C@@H](C)O)[C@@H](C)O)C(=O)N[C@@H](Cc2ccc(O)cc2)C(=O)N[C@@H](C)C(=O)N[C@@H](CCC(N)=O)C(=O)N[C@@H](CC(=O)O)C(=O)N[C@@H](Cc2ccccc2)C(=O)N[C@@H](C(C)C)C(=O)N1)C(=O)N[C@@H](CCC(=O)O)C(=O)NCC(=O)NCC(=O)N1CCC[C@H]1C(=O)N[C@@H](CO)C(=O)N[C@@H](CO)C(=O)NCC(=O)N[C@@H](C)C(=O)N1CCC[C@H]1C(=O)N1CCC[C@H]1C(=O)N1CCC[C@H]1C(=O)N[C@@H](CO)C(N)=O` [TG10]: the concentration giving a half-maximal response (EC50) came out at 368 pM on GIPR [1]; 359 pM at GLP-1R [2]; 149 pM at GCGR [3]; 8.5 pM on GCGR [4]; 2.5 pM at GLP-1R [5]; 9.7 pM on GIPR [6].

Consider `CC[C@H](C)[C@@H]1NC(=O)[C@H](Cc2ccccc2)NC(=O)[C@@H](NC(=O)C(C)(C)NC(=O)[C@H](CCC(N)=O)NC(=O)[C@H](C)NC(=O)[C@H](CCCCNC(C)=O)NC(=O)[C@H](CCCCN)NC(=O)[C@H](CC(=O)O)NC(=O)[C@H](CC(C)C)NC(=O)[C@](C)(CC(C)C)NC(=O)[C@@H](NC(=O)[C@H](CO)NC(=O)[C@H](Cc2ccc(O)cc2)NC(=O)[C@H](CC(=O)O)NC(=O)[C@H](CO)NC(=O)[C@@H](NC(=O)[C@H](Cc2ccccc2)NC(=O)[C@@H](NC(=O)CNC(=O)[C@H](CCC(N)=O)NC(=O)C2(NC(=O)[C@@H](N)Cc3ccc(O)cc3)CCC2)[C@@H](C)O)[C@@H](C)O)[C@@H](C)CC)CSCC(=O)NCCN(C(=O)CCC(=O)NCCOCCOCC(=O)NCCOCCOCC(=O)NCCCC[C@H](NC(=O)CCCCCCCCCCCCCCCCCCC(=O)O)C(=O)O)CCNC(=O)CSC[C@@H](C(=O)NCC(=O)NCC(=O)N2CCC[C@H]2C(=O)N[C@@H](CO)C(=O)N[C@@H](CO)C(=O)NCC(=O)N[C@@H](C)C(=O)N2CCC[C@H]2C(=O)N2CCC[C@H]2C(=O)N2CCC[C@H]2C(=O)N[C@@H](CO)C(N)=O)NC(=O)[C@H](CC(C)C)NC(=O)[C@H](CC(C)C)NC(=O)[C@H](Cc2ccc(O)cc2)NC(=O)[C@H](CCC(=O)O)NC1=O` [TG43], for which the concentration giving a half-maximal response (EC50) on GIPR [1] stood at 13.6 pM; at GLP-1R [2], 57.1 pM; at GCGR [3], 78.7 pM; at GCGR [4], 3.8 pM; at GLP-1R [5], 1.3 pM; on GIPR [6], 6.4 pM.

Consider `CC[C@H](C)[C@@H]1NC(=O)[C@H](Cc2ccccc2)NC(=O)[C@H](C)NC(=O)C(C)(C)NC(=O)[C@H](CCC(N)=O)NC(=O)[C@H](C)NC(=O)[C@@H](NC(=O)[C@H](CCCCN)NC(=O)[C@H](CC(=O)O)NC(=O)[C@H](CC(C)C)NC(=O)[C@H](CC(C)C)NC(=O)[C@@H](NC(=O)[C@H](CO)NC(=O)[C@H](Cc2ccc(O)cc2)NC(=O)[C@H](CC(=O)O)NC(=O)[C@H](CO)NC(=O)[C@@H](NC(=O)[C@H](Cc2ccccc2)NC(=O)[C@@H](NC(=O)CNC(=O)[C@H](CCC(N)=O)NC(=O)C(C)(C)NC(=O)[C@@H](N)Cc2ccc(O)cc2)[C@@H](C)O)[C@@H](C)O)[C@@H](C)CC)CSCC(=O)NCCN(C(=O)CCC(=O)NCCOCCOCC(=O)NCCOCCOCC(=O)NCCCC[C@H](NC(=O)CCCCCCCCCCCCCCCCCCC(=O)O)C(=O)O)CCNC(=O)CSC[C@@H](C(=O)N[C@@H](Cc2ccc(O)cc2)C(=O)N[C@@H](CC(C)C)C(=O)N[C@@H](CC(C)C)C(=O)N[C@@H](CCC(=O)O)C(=O)NCC(=O)NCC(=O)N2CCC[C@H]2C(=O)N[C@@H](CO)C(=O)N[C@@H](CO)C(=O)NCC(=O)N[C@@H](C)C(=O)N2CCC[C@H]2C(=O)N2CCC[C@H]2C(=O)N2CCC[C@H]2C(=O)N[C@@H](CO)C(N)=O)NC1=O` [TG12], for which the EC50 was 66.6 pM on GIPR [1]; 205 pM on GLP-1R [2]; 325 pM at GCGR [3]; 40.3 pM on GCGR [4]; 5.8 pM at GLP-1R [5]; 12.1 pM at GIPR [6].

Take `CC[C@H](C)[C@@H]1NC(=O)[C@H](Cc2ccccc2)NC(=O)[C@@H](NC(=O)C(C)(C)NC(=O)[C@H](CCC(N)=O)NC(=O)[C@H](C)NC(=O)[C@H](CCCCNC(C)=O)NC(=O)[C@H](CCCCN)NC(=O)[C@H](CC(=O)O)NC(=O)[C@H](CC(C)C)NC(=O)[C@](C)(CC(C)C)NC(=O)[C@@H](NC(=O)[C@H](CO)NC(=O)[C@H](Cc2ccc(O)cc2)NC(=O)[C@H](CC(=O)O)NC(=O)[C@H](CO)NC(=O)[C@@H](NC(=O)[C@H](Cc2ccccc2)NC(=O)[C@@H](NC(=O)CNC(=O)[C@H](CCC(N)=O)NC(=O)C(C)(C)NC(=O)[C@@H](N)Cc2c[nH]cn2)[C@@H](C)O)[C@@H](C)O)[C@@H](C)CC)CSCC(=O)NCCN(C(=O)CCC(=O)NCCOCCOCC(=O)NCCOCCOCC(=O)NCCCC[C@H](NC(=O)CCCCCCCCCCCCCCCCCCC(=O)O)C(=O)O)CCNC(=O)CSC[C@@H](C(=O)NCC(=O)NCC(=O)N2CCC[C@H]2C(=O)N[C@@H](CO)C(=O)N[C@@H](CO)C(=O)NCC(=O)N[C@@H](C)C(=O)N2CCC[C@H]2C(=O)N2CCC[C@H]2C(=O)N2CCC[C@H]2C(=O)N[C@@H](CO)C(N)=O)NC(=O)[C@H](CC(C)C)NC(=O)[C@H](CC(C)C)NC(=O)[C@H](Cc2ccc(O)cc2)NC(=O)[C@H](CCC(=O)O)NC1=O` [TG18]: the 50% effective concentration (EC50) on GIPR [1] is 25.9 pM; on GLP-1R [2], 66.9 pM; on GCGR [3] it was 802 pM; on GCGR [4] it was 94.4 pM; at GLP-1R [5] it was 1.4 pM; on GIPR [6], 1.7 pM.

Regarding `CC[C@H](C)[C@@H]1NC(=O)[C@H](Cc2ccccc2)NC(=O)[C@@H](NC(=O)C(C)(C)NC(=O)[C@H](CCC(N)=O)NC(=O)[C@H](C)NC(=O)[C@H](CCCCNC(C)=O)NC(=O)[C@H](CCCCN)NC(=O)[C@H](CC(=O)O)NC(=O)[C@H](CCC(C)C)NC(=O)[C@](C)(CC(C)C)NC(=O)[C@@H](NC(=O)[C@H](CO)NC(=O)[C@H](Cc2ccc(O)cc2)NC(=O)[C@H](CC(=O)O)NC(=O)[C@H](CO)NC(=O)[C@@H](NC(=O)[C@H](Cc2ccccc2)NC(=O)[C@@H](NC(=O)CNC(=O)[C@H](CCC(N)=O)NC(=O)C(C)(C)NC(=O)[C@@H](N)Cc2ccc(O)cc2)[C@@H](C)O)[C@@H](C)O)[C@@H](C)CC)CSCC(=O)NCCN(C(=O)CCC(=O)NCCOCCOCC(=O)NCCOCCOCC(=O)NCCCC[C@H](NC(=O)CCCCCCCCCCCCCCCCCCC(=O)O)C(=O)O)CCNC(=O)CSC[C@@H](C(=O)NCC(=O)NCC(=O)N2CCC[C@H]2C(=O)N[C@@H](CO)C(=O)N[C@@H](CO)C(=O)NCC(=O)N[C@@H](C)C(=O)N2CCC[C@H]2C(=O)N2CCC[C@H]2C(=O)N2CCC[C@H]2C(=O)N[C@@H](CO)C(N)=O)NC(=O)[C@H](CC(C)C)NC(=O)[C@H](CC(C)C)NC(=O)[C@H](Cc2ccc(O)cc2)NC(=O)[C@H](CCC(=O)O)NC1=O` [TG25], the concentration giving a half-maximal response (EC50) is 24.4 pM at GIPR [1]; 54 pM at GLP-1R [2]; 311 pM at GCGR [3]; 65.1 pM on GCGR [4]; 2.2 pM at GLP-1R [5].
